Source: patent US20060013770A1, “Method for screening for compounds as potential sedatives or anxiolytics” (priority 2002, published 2006)

Assays:
HPA axis [1] = conditions: at the level of the hypothalamic CRF neurons; cited from earlier work
HPA axis [2] = experiment: Effect on plasma corticosterone (HPA axis activity) in mice, radioimmunoassay; type: in vivo, NMRI mice
HPA axis [3] = experiment: Time course of the effect on the HPA axis (plasma ACTH and corticosterone), FIG. 2; type: in vivo; conditions: 10 mg/kg
Procedure: One example of measuring the activity of the HPA axis is as follows: The animal Is treated with the NCE and sacrificed within an hour. As the release of ACTH occurs within an hour after the stimulation of the CRF neurons, animals are sacrificed at t=0, 5, 15, 30 and 60 minutes after administration. Trunk blood is taken, serum separated and levels of ACTH is measured in the serum by specific radioimmunoassay. Similarly, the level of glucocortcosteroids are determined at t=0, 30, 60, and 120 minutes (the response occurs somewhat later than ACTH) using a radioimmunoassay.

[4] = i.p., 60 minutes after administration

## CN1C(=O)CN=C(c2ccccc2)c2cc(Cl)ccc21 [Diazepam]
HPA axis [1]
  effect on the HPA axis: slightly stimulate the HPA axis

## Cn1ncnc1COc1nn2c(-c3cc(F)ccc3F)nnc2cc1C(C)(C)C [L-838,417]
HPA axis [2]; 12.5 mg/kg, 2 h after administration
  effect on plasma corticosterone: no effects on plasma corticosterone was observed
HPA axis [2]; i.p., doses up to 12.5 mg/kg, 60 minutes after administration
  effect on corticosterone: no effect

## Cc1ccc(-c2nc3ccc(C)cn3c2CC(=O)N(C)C)cc1 [Zolpidem, zolpidem]
HPA axis [3]
  time course of plasma ACTH and corticosterone: The rise in plasma ACTH precedes the rise in corticosterone
HPA axis [2]; i.p., 25 mg/kg, 60 minutes after administration
  effect on plasma corticosterone at 25 mg/kg compared with 12.5 mg/kg: not further increased
HPA axis [2]; [4]
  dose at which the effect on plasma corticosterone reached a maximum: 12.5 mg/kg
  doses from which plasma corticosterone is significantly increased: ≥ 0.5 mg/kg
HPA axis [2]; i.p., 60 minutes after administration, increasing doses
  effect on plasma corticosterone: significantly and dose-dependently increased plasma corticosterone
